According to US20100210836A1, “SMALL MOLECULE INHIBITORS OF LYMPHOID TYROSINE PHOSPHATASE” (University of Southern California, priority 2009, published 2010):
pIC50: −log10 of the molar value. Where two headings read alike, the source gives them in different places.

Experiments:
LYP/PTPN22 = target: T1, LYP/PTPN22 (Homo sapiens, UniProt Q9Y2R2); assay: biochemical
T1 construct: catalytic domains of LYP (aa 2-309) and PTP-PEST (aa 2-323, PEST); 6xHis (N, cleaved yes); made in house; host or cells: E. coli BL21
T1 sequence (Q9Y2R2 2-309): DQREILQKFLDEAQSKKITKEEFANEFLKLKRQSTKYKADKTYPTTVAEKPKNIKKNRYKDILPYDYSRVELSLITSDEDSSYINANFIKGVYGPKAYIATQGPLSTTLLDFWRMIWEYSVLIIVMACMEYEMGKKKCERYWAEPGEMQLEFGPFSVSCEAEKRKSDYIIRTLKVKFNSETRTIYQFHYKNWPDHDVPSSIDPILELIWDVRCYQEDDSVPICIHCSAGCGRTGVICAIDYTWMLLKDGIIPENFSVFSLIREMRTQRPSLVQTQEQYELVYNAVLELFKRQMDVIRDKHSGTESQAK
Description: Chemical Library Screening for LYP Inhibitors. A library consisting of a highly diverse set of 4,000 compounds was screened in a 96-well format in an assay specific for LYP activity. […] The reaction mixture with the compounds was incubated for 25 min at 37° C. […] All assays were done in triplicate. The IC50 values were then determined for each drug from a plot of log [drug concentration] versus percentage of enzyme inhibition. Absorbance data were measured using a Molecular Devices Emax Precision Microplate reader.
Identification of Compounds as LYP Inhibitors. We initially screened a library of 4000 drug-like small-molecule compounds against LYP/PTPN22, using p-nitrophenyl phosphate (pNPP) as a substrate. The ability of the library members to inhibit LYP/PTPN22 catalyzed hydrolysis of pNPP was measured in a buffer containing 50 mM Bis-Tris pH 6.0, 1 mM DTT at 37° C.

PTP-PEST = target: T2, PTP-PEST (Homo sapiens, UniProt Q05209); assay: Counter-screen phosphatase assay PTP-PEST; assay type: biochemical; conditions: read-out: PEST IC50
T2 sequence (Q05209 2-323): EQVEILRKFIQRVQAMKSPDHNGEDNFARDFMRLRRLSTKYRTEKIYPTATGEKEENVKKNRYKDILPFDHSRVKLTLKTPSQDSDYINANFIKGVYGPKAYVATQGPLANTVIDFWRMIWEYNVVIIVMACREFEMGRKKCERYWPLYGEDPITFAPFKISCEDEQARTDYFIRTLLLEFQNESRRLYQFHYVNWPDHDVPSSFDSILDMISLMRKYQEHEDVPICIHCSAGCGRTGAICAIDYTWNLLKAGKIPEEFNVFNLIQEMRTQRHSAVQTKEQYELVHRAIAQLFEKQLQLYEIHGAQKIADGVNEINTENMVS

[1] = LYP IC50, Table IV, analogues of E3P13
[2] = selectivity, ratio PEST IC50 / LYP IC50, Table IV
[3] = Table IV, analogues of E3P13, read-out: LYP IC50

SMILES | pIC50 (LYP/PTPN22; [1]) | pIC50 (PTP-PEST) | other results
Cc1ccc2[nH]c(=O)c([C@@H](c3nnnn3C3CCCC3)N(CCc3ccccc3)Cc3ccccc3)cc2c1 [compound 16] | 4.88 | 4.71 | PEST_LYP (LYP/PTPN22; [2]): 1.46
Cc1ccc2[nH]c(=O)c([C@H](c3nnnn3C3CCCC3)N3CCN(c4ccc(O)cc4)CC3)cc2c1 [compound 74] |  |  | pIC50 (LYP/PTPN22; [3]): < 4.40
Cc1ccc2cc([C@H](c3nnnn3C(C)(C)C)N3CCCC4(CCCCC4)C3)c(=O)[nH]c2c1 [compound 29] | 4.69 | 4.57 | PEST_LYP (LYP/PTPN22; [2]): 1.33
CCN1CCN([C@H](c2cc3cc(C)ccc3[nH]c2=O)c2nnnn2C2CCCC2)CC1 [compound 52] |  |  | pIC50 (LYP/PTPN22; [3]): < 4.40
Cc1ccc2[nH]c(=O)c([C@H](c3nnnn3C3CCCC3)N3CCC[C@@H](C)C3)cc2c1 [compound 24] |  | 4.58 | 
Cc1cc(C)c2cc([C@H](c3nnnn3C(C)(C)C)N3CCCC4(CCCCC4)C3)c(=O)[nH]c2c1 [compound 28] | 4.71 | 4.58 | PEST_LYP (LYP/PTPN22; [2]): 1.33
Cc1cccc2cc(C(c3nnnn3C3CCCC3)N3CCN(C(c4ccccc4)c4ccccc4)CC3)c(=O)[nH]c12 (centres unmarked) [compound 17] |  | 5.00 | PEST_LYP (LYP/PTPN22): 0.76; pIC50 (LYP/PTPN22; LYP IC50): 4.88
COc1ccc2cc([C@H](c3nnnn3C3CCCC3)N3CCN(c4ccccc4)CC3)c(=O)[nH]c2c1 [compound 66] | < 4.40 |  | 
Cc1ccc2[nH]c(=O)c([C@H](c3nnnn3C(C)(C)C)N3CCCC4(CCCCC4)C3)cc2c1 [compound 33] | 4.67 | 4.55 | PEST_LYP (LYP/PTPN22; [2]): 1.33
Cc1ccc2[nH]c(=O)c([C@@H](c3nnnn3C3CCCC3)N(Cc3ccccc3)Cc3ccc(Cl)cc3)cc2c1 [compound 7] |  | 4.77 | 
Cc1ccc2[nH]c(=O)c([C@H](c3nnnn3C3CCCC3)N3CCC(C)CC3)cc2c1 [compound 32] |  | 4.50 | PEST_LYP (LYP/PTPN22): 1.52; pIC50 (LYP/PTPN22; LYP IC50): 4.69
Cc1ccc2cc([C@H](c3nnnn3C3CCCC3)N3CCC[C@@H](C)C3)c(=O)[nH]c2c1 [compound 43] | 4.50 | 4.10 | PEST_LYP (LYP/PTPN22; [2]): 2.52
Cc1cc(C)c2[nH]c(=O)c(C(c3nnnn3C3CCCC3)N3CCN(C(c4ccccc4)c4ccccc4)CC3)cc2c1 (centres unmarked) [compound 8] |  | 5.02 | PEST_LYP (LYP/PTPN22): 0.98; pIC50 (LYP/PTPN22; LYP IC50): 5.01
COc1ccccc1N1CCN([C@H](c2cc3cc(C)ccc3[nH]c2=O)c2nnnn2C2CCCC2)CC1 [compound 50] |  |  | pIC50 (LYP/PTPN22; [3]): < 4.40
Cc1ccc2cc(C(c3nnnn3C3CCCC3)N3CCCC4(CCCCC4)C3)c(=O)[nH]c2c1C (centres unmarked) [compound 13] |  | 4.79 | PEST_LYP (LYP/PTPN22): 1.33; pIC50 (LYP/PTPN22; LYP IC50): 4.92
Cc1cc(C)c2[nH]c(=O)c([C@H](c3nnnn3C3CCCC3)N3CCC(C)CC3)cc2c1 [compound 62] | < 4.40 |  | 
Cc1ccc2[nH]c(=O)c([C@H](c3nnnn3C3CCCC3)N3CCN(c4ccccc4F)CC3)cc2c1 [compound 36] |  | 4.64 | PEST_LYP (LYP/PTPN22): 0.92
COc1ccc(N2CCN([C@H](c3cc4ccc(OC)cc4[nH]c3=O)c3nnnn3C3CCCC3)CC2)cc1 [compound 67] | < 4.40 |  | 
Cc1ccc2cc(C(c3nnnn3C3CCCC3)N3CCN(C(c4ccccc4)c4ccccc4)CC3)c(=O)[nH]c2c1C (centres unmarked) [compound 6] |  | 5.01 | PEST_LYP (LYP/PTPN22): 1.07; pIC50 (LYP/PTPN22; LYP IC50): 5.04

SMILES | pIC50 (LYP/PTPN22; [1]) | pIC50 (PTP-PEST) | other results
Cc1cc(C)c2cc([C@H](c3nnnn3C3CCCC3)N3CCCCC3)c(=O)[nH]c2c1 [compound 70] | < 4.40 |  | 
Cc1cc(C)c2cc([C@H](c3nnnn3C3CCCC3)N3CCC(C)CC3)c(=O)[nH]c2c1 [compound 71] | < 4.40 |  | 
Cc1ccc2[nH]c(=O)c([C@H](c3nnnn3C3CCCC3)N3CCN4CCC[C@H]4C3)cc2c1 [compound 57] | < 4.40 |  | 
Cc1ccc2cc([C@@H](c3nnnn3C3CCCC3)N3CCCCC3)c(=O)[nH]c2c1C [compound 63] | < 4.40 |  | 
Cc1cc(C)c2[nH]c(=O)c([C@H](c3nnnn3C3CCCC3)N3CCC[C@@H](C)C3)cc2c1 [compound 49] | 4.40 | 4.34 | PEST_LYP (LYP/PTPN22; [2]): 1.15
Cc1ccc2[nH]c(=O)c([C@H](c3nnnn3C3CCCC3)N3CCN(Cc4ccccc4)CC3)cc2c1 [compound 77] |  |  | pIC50 (LYP/PTPN22; [3]): < 4.40
Cc1cc(C)c2[nH]c(=O)c([C@H](c3nnnn3C3CCCC3)N3CCCCC3)cc2c1 [compound 61] | < 4.40 |  | 
Cc1cccc2cc(C(c3nnnn3C3CCCC3)N3CCCC4(CCCCC4)C3)c(=O)[nH]c12 (centres unmarked) [compound 22] |  | 4.67 | PEST_LYP (LYP/PTPN22): 1.34; pIC50 (LYP/PTPN22; LYP IC50): 4.80
Cc1ccc2[nH]c(=O)c([C@@H](c3nnnn3C3CCCC3)N3CCOCC3)cc2c1 [compound 58] | < 4.40 |  | 
Cc1ccc2cc(C(c3nnnn3C3CCCC3)N(Cc3ccccc3)Cc3ccc(C(C)C)cc3)c(=O)[nH]c2c1 (centres unmarked) [compound 4] |  | 5.00 | PEST_LYP (LYP/PTPN22): 1.31; pIC50 (LYP/PTPN22; LYP IC50): 5.12
Cc1cccc2cc([C@H](c3nnnn3CC3CCCC3)N3CCCC4(CCCCC4)C3)c(=O)[nH]c12 [compound 51] | < 4.40 |  | 
Cc1ccc2[nH]c(=O)c(C(c3nnnn3C3CCCC3)N3CCN(C(c4ccccc4)c4ccccc4)CC3)cc2c1 (centres unmarked) [compound 3] |  | 5.06 | PEST_LYP (LYP/PTPN22): 1.38; pIC50 (LYP/PTPN22; LYP IC50): 5.20
Cc1cc(C)c2[nH]c(=O)c([C@H](c3nnnn3C(C)(C)C)N3CCCC4(CCCCC4)C3)cc2c1 [compound 19] | 4.87 | 4.51 | PEST_LYP (LYP/PTPN22; [2]): 2.27
COc1ccc(N2CCN([C@H](c3cc4cc(C)ccc4[nH]c3=O)c3nnnn3C3CCCC3)CC2)cc1 [compound 42] |  | 4.39 | PEST_LYP (LYP/PTPN22): 1.27; pIC50 (LYP/PTPN22; LYP IC50): 4.50
Cc1ccc2[nH]c(=O)c([C@@H](c3nnnn3C3CCCC3)N3CCc4ccccc4C3)cc2c1 [compound 39] | 4.52 | 4.41 | PEST_LYP (LYP/PTPN22; [2]): 1.28
Cc1ccc2cc([C@H](c3nnnn3C3CCCC3)N3CCC[C@@H](C)C3)c(=O)[nH]c2c1C [compound 60] | < 4.40 |  | 
Cc1ccc2[nH]c(=O)c([C@H](c3nnnn3C3CCCC3)N3CCN(c4nc5ccccc5[nH]4)CC3)cc2c1 [compound 38] | 4.52 | 4.41 | PEST_LYP (LYP/PTPN22; [2]): 1.26
Cc1ccc2cc([C@H](c3nnnn3CC3CCCC3)N3CCCC4(CCCCC4)C3)c(=O)[nH]c2c1 [compound 23] | 4.77 | 4.42 | PEST_LYP (LYP/PTPN22; [2]): 2.22
COc1ccc2cc([C@@H](c3nnnn3C3CCCC3)N3CCC(C)CC3)c(=O)[nH]c2c1 [compound 65] | < 4.40 |  | 

SMILES | pIC50 (LYP/PTPN22; [1]) | pIC50 (PTP-PEST) | other results
Cc1cccc2cc([C@H](c3nnnn3C3CCCCC3)N3CCN(Cc4ccccc4)CC3)c(=O)[nH]c12 [compound 69] | < 4.40 |  | 
Cc1ccc2[nH]c(=O)c([C@H](c3nnnn3C3CCCC3)N(C)C3CCCCC3)cc2c1 [compound 53] | < 4.40 |  | 
Cc1ccc2[nH]c(=O)c([C@H](c3nnnn3C3CCCC3)N3CCN(C4CCCCC4)CC3)cc2c1 [compound 73] |  |  | pIC50 (LYP/PTPN22; [3]): < 4.40
Cc1ccc2[nH]c(=O)c([C@@H](c3nnnn3C3CCCC3)N3CCCC3)cc2c1 [compound 59] | < 4.40 |  | 
Cc1cccc2cc([C@@H](c3nnnn3C3CCCC3)N3CCCCC3)c(=O)[nH]c12 [compound 76] | < 4.40 |  | 
Cc1ccc2[nH]c(=O)c([C@H](c3nnnn3C3CCCC3)N3CCN(c4ccc(F)cc4)CC3)cc2c1 [compound 45] |  | 4.42 | 
Cc1ccc2cc([C@@H](c3nnnn3C3CCCC3)N3CCCCC3)c(=O)[nH]c2c1 [compound 68] | < 4.40 |  | 
Cc1ccc2[nH]c(=O)c(C(c3nnnn3C3CCCC3)N(Cc3ccccc3)Cc3ccc(C(C)C)cc3)cc2c1 (centres unmarked) [compound 1] |  | 5.26 | 
COc1ccc2cc([C@H](c3nnnn3CC3CCCC3)N3CCCC4(CCCCC4)C3)c(=O)[nH]c2c1 [compound 55] | < 4.40 |  | 
Cc1ccc2[nH]c(=O)c([C@H](c3nnnn3C3CCCC3)N3CCC(O)CC3)cc2c1 [compound 78] | < 4.40 |  | 
Cc1ccc2[nH]c(=O)c([C@H](c3nnnn3C3CCCC3)N3CCN(Cc4ccccc4)CC3)cc2c1 [compound 80] |  |  | pIC50 (LYP/PTPN22; [3]): < 4.40
Cc1ccc2[nH]c(=O)c([C@@H](c3nnnn3C3CCCC3)N3CCCCCC3)cc2c1 [compound 54] | < 4.40 |  | 
Cc1cccc2cc([C@H](c3nnnn3C3CCCC3)N3CCN(C)CC3)c(=O)[nH]c12 [compound 75] | < 4.40 |  | 
Cc1cccc2cc([C@H](c3nnnn3C3CCCC3)N3CCC[C@@H](C)C3)c(=O)[nH]c12 [compound 72] | < 4.40 |  | 
COc1ccc(CN(Cc2ccccc2)[C@@H](c2cc3cc(C)ccc3[nH]c2=O)c2nnnn2C2CCCC2)cc1 [compound 15] |  | 4.82 | 
Cc1ccc2[nH]c(=O)c([C@H](c3nnnn3C3CCCC3)N3CCN(C)CC3)cc2c1 [compound 56] |  |  | pIC50 (LYP/PTPN22; [3]): < 4.40
CCOC(=O)C1CCN([C@H](c2cc3cc(C)ccc3[nH]c2=O)c2nnnn2C2CCCC2)CC1 [compound 79] | < 4.40 |  | 
COc1ccc2cc([C@@H](c3nnnn3C3CCCC3)N3CCCCC3)c(=O)[nH]c2c1 [compound 64] | < 4.40 |  | 
